Each structure is given as a SMILES string. Converted amounts (≈) assume the structure as drawn.

Experiment [1] relates to A. fumigatus Tsukuba strain. The experiment in a line: Anti-Aspergillus activity (MIC measurement). The settings on record: MIC by visual inspection, 48 hours at 30 to 35° C. Format: cell-based. The procedure:
(§1) For the C. albicans E81022 strain, a fungal suspension from a standing culture for 48 hours at 30° C. in a Sabouraud dextrose liquid culture medium (SDB) was diluted 10,000-fold with a 1.3-fold concentrated SDB to adjust to a fungal suspension of 1 to 2×10^4 cells/ml. For the A. fumigatus Tsukuba strain, −80° C. stored strain was diluted 1,000-fold with a 1.3-fold concentrated SDB to adjust to a fungal suspension of 2 to 3×10^3 cells/ml.
(§2) Using a U-bottomed 96 well plate, 8 samples/plate (A to H) of sample dilution solutions were prepared. On the 3rd row of each plate was dispensed 240 μl of sterilized and distilled water, and on the 2nd and 4th to 12th rows were dispensed 125 μl of 4% dimethylsulfoxide solution. Weighed sample was dissolved in dimethylsulfoxide to prepare a 2.5 to 20 mg/ml solution, 10 μl of this solution was then added to the 3rd row of the prepared plate, and 10 steps of two-fold step dilutions (125 μl of solution+125 μl of 4% dimethylsulfoxide) were performed on the plate.
(§3) The fungal suspension preprared in (1) was used in the amount of 75 μl/well to inoculate a V-bottomed or flat-bottomed 96 well plate containing 25 μl/well of test compound dilution solution prepared in (2), and a standing culture was carried out aerobically for 48 hours at 30 to 35° C.

In experiment [2] the test system is C. albicans E81022 strain. In words: Anti-Candida activity (MIC measurement). The format is cell-based. The settings on record: E81022STRAIN, MIC by visual inspection, C. albicans E81022, 48 hours at 30 to 35° C. The protocol: as §1, §2, §3

As a reminder, the MIC is the lowest concentration found to suppress growth. Low readings indicate greater potency, high ones weaker potency. Regarding `O=C(NCc1ccc(Oc2ccc(F)cc2)s1)c1ccc2ncccc2c1` [Example E-67, Quinoline-6-carboxylic acid (5-(4-fluorophenoxy)thiophen-2-yl)methyl amide], the MIC stood at 0.78 µg/mL (≈ 2.06 µM) in experiment [1] and 0.39 µg/mL (≈ 1.03 µM) in experiment [2].

On to `O=C(NCc1cccc(Oc2ccccc2)c1)c1ccc2nsnc2c1` [Example M-1, Benzo[1,2 5]thiadiazole-5-carboxylic acid 3-phenoxybenzylamide], for which the MIC in experiment [1] and in experiment [2] was 1.56 µg/mL (≈ 4.32 µM) throughout.

As to `Nc1nc(Cl)ccc1C(=O)NCc1ccc(Oc2ccccc2)s1` [Example A-101, 2-Amino-6-chloro-N-(5-phenoxy-thiophen-2-ylmethyl)-nicotinamide], the MIC in experiment [1] came to 0.39 µg/mL (≈ 1.08 µM); in experiment [2] it was 0.1 µg/mL (≈ 0.278 µM).

With `Nc1nc(NCc2ccco2)ccc1C(=O)NCc1ccc(Oc2ccccc2)s1` [Example A-82, 2-Amino-6-(furfurylamino)-N-(5-phenoxy-thiophen-2-ylmethyl)-nicotinamide], the MIC stood at 1.56 µg/mL (≈ 3.71 µM) in experiment [1] and 0.2 µg/mL (≈ 0.476 µM) in experiment [2].

Regarding `Nc1ncccc1C(=O)NCc1cc(Cl)c(Oc2ccccc2)s1` [Example A-171, 2-Amino-N-(4-chloro-5-phenoxy-thiophen-2-ylmethyl)-nicotinamide], the MIC in experiment [1] came to 1.56 µg/mL (≈ 4.34 µM); in experiment [2], 0.2 µg/mL (≈ 0.556 µM).

Turning to `O=C(NCc1ccc(OCc2ccccc2)cc1)c1ccc2ncccc2c1` [Example E-8, quinoline-6-carboxylic acid 4-benzyloxybenzylamide], the MIC in experiment [1] and in experiment [2] was 0.2 µg/mL (≈ 0.543 µM) throughout.

As for `Cc1ccc(Cc2ccc(CNC(=O)c3ccc4ncccc4c3)s2)s1` [Example E-73, Quinoline-6-carboxylic acid (5-(5-methyl-thiophen-2-ylmethyl)-thiophen-2-ylmethyl)-amide], the MIC in experiment [1] was determined as 0.78 µg/mL (≈ 2.06 µM); in experiment [2], 0.2 µg/mL (≈ 0.528 µM).

Regarding `Cc1ccc(C(=O)NCc2ccc(OCc3ccccc3)cc2)c(N)n1` [Example A-37, 2-Amino-N-(4-benzyloxy-benzyl)-6-methyl-nicotinamide], the results for the MIC in experiment [1] and in experiment [2] were 3.13 µg/mL (≈ 9.01 µM) and 0.39 µg/mL (≈ 1.12 µM), respectively.

On to `Nc1nc(NCc2ccc(OCc3ccccc3)cc2)c2cccnc2n1` [Example Y-1, N*4*-(4-Benzyloxy-benzyl)-pyrido[2,3-d]pyrimidine-2,4-diamine], for which the MIC in experiment [1] turned out to be 6.25 µg/mL (≈ 17.5 µM); in experiment [2] it was 0.78 µg/mL (≈ 2.18 µM).

For the molecule `Nc1ncccc1C(=O)NCc1ccc(Cc2ccccc2)o1` [Example A-5, 2-Amino-N-(5-benzyl-furan-2-ylmethyl)-nicotinamide], the MIC in experiment [1] turned out to be 0.78 µg/mL (≈ 2.54 µM); in experiment [2], 0.2 µg/mL (≈ 0.651 µM).

For the molecule `N#C/N=C(\NCc1ccc(OCc2ccccc2)cc1)c1ccc2ncccc2c1` [Example E-45, N-(4-Benzyloxy-benzyl)-N′-cyano-quinoline-6-carboxamidine], the minimum inhibitory concentration (MIC) in experiment [1] and in experiment [2] was 3.13 µg/mL (≈ 7.98 µM) throughout.

Consider `Nc1ccc(C(=O)NCc2ccc(OCc3ccccc3)cc2)cn1` [Example A-39, 6-Amino-N-(4-benzyloxybenzyl)-nicotinamide], for which the MIC in experiment [1] and in experiment [2] was 1.56 µg/mL (≈ 4.68 µM) throughout.

Regarding `O=C(NCc1ccc(Cc2cccc(Cl)c2)s1)c1ccc2ncccc2c1` [Example E-71, Quinoline-6-carboxylic acid (5-(3-chlorobenzyl)-thiophen-2-ylmethyl)-amide], the MIC in experiment [1] came to 1.56 µg/mL (≈ 3.97 µM); in experiment [2], 0.2 µg/mL (≈ 0.509 µM).

`c1ccc(COc2ccc(NCc3ccc4ncccc4c3)cc2)cc1` [Example W-1, (4-Benzyloxy-phenyl)-quinolin-6-ylmethyl-amine]: the MIC in experiment [1] came out at 0.78 µg/mL (≈ 2.29 µM); in experiment [2] it was 0.39 µg/mL (≈ 1.15 µM).

`O=C(O)CCNc1ncccc1C(=O)NCc1ccc(Oc2ccccc2)s1` [Example A-131]: the values for the MIC in experiment [1] and in experiment [2] were 6.25 µg/mL (≈ 15.7 µM) and 1.56 µg/mL (≈ 3.92 µM), respectively.

The values above are taken from patent US7932272B2, “Antifungal agent containing heterocyclic compound” (Eisai R&D Management Co., Ltd., priority 2003, dated 2011).
